The values that follow come from ChEMBL document CHEMBL1201862, “PubChem BioAssay data set” (2004).

Some targets named below: Aurora kinase B (Homo sapiens, UniProt Q96GD4); Aurora kinase A (Homo sapiens, UniProt O14965); Focal adhesion kinase 1 (Homo sapiens, UniProt Q05397).
Holding throughout (format): functional
Assay [1] addresses ALK tyrosine kinase receptor (Homo sapiens, UniProt Q9UM73).
Assay [2] has as its target Macrophage colony-stimulating factor 1 receptor (Homo sapiens, UniProt P07333).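 Also: value comes from the Navigating the Kinome screening panel, CSF1R member.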
Assay [3] has as its target 5'-AMP-activated protein kinase catalytic subunit alpha-1 (Homo sapiens, UniProt Q13131).
In assay [4] the target is Glycogen synthase kinase-3 beta (Homo sapiens, UniProt P49841).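 Also: value comes from a broad kinome profiling panel, with GSK3B as the panel member.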
Sequence of Glycogen synthase kinase-3 beta (P49841 whole entry): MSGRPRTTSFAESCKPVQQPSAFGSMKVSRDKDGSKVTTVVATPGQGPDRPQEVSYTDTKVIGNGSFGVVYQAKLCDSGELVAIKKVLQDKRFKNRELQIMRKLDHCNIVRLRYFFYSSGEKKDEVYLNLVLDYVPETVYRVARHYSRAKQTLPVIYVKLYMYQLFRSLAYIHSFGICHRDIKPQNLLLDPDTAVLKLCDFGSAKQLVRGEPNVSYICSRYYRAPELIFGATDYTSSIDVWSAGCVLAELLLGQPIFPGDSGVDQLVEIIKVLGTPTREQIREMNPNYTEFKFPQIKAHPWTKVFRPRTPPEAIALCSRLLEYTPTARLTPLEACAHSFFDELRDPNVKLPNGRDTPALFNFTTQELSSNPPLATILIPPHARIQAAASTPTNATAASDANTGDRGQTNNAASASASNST
Assay [5] deals with T1, Mitogen-activated protein kinase kinase kinase kinase 2 (Homo sapiens, UniProt Q12851).
T1 sequence (Q12851 whole entry): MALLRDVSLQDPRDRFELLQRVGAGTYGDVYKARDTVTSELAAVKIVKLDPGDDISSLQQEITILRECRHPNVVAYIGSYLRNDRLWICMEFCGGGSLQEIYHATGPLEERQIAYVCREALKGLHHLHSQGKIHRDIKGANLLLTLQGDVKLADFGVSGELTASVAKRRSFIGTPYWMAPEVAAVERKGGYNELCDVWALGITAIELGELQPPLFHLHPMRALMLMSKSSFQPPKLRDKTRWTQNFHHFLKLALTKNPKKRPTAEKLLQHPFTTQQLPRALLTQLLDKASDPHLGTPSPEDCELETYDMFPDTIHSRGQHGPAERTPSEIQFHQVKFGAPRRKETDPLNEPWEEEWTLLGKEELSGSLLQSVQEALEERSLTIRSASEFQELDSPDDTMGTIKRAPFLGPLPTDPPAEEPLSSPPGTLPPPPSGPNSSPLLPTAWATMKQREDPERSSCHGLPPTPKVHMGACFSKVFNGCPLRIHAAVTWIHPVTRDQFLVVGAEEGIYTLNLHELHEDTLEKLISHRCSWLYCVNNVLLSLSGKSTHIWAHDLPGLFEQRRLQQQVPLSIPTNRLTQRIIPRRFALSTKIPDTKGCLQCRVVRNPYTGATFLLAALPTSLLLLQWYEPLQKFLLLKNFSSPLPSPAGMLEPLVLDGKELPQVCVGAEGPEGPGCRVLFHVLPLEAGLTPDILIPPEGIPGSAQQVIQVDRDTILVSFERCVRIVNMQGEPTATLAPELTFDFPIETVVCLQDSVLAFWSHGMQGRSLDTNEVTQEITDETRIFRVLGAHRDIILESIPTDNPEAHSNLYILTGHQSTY

The target of assay [6] is T2, Serine/threonine-protein kinase TAO1 (Homo sapiens, UniProt Q7L7X3).
T2 sequence (Q7L7X3 whole entry): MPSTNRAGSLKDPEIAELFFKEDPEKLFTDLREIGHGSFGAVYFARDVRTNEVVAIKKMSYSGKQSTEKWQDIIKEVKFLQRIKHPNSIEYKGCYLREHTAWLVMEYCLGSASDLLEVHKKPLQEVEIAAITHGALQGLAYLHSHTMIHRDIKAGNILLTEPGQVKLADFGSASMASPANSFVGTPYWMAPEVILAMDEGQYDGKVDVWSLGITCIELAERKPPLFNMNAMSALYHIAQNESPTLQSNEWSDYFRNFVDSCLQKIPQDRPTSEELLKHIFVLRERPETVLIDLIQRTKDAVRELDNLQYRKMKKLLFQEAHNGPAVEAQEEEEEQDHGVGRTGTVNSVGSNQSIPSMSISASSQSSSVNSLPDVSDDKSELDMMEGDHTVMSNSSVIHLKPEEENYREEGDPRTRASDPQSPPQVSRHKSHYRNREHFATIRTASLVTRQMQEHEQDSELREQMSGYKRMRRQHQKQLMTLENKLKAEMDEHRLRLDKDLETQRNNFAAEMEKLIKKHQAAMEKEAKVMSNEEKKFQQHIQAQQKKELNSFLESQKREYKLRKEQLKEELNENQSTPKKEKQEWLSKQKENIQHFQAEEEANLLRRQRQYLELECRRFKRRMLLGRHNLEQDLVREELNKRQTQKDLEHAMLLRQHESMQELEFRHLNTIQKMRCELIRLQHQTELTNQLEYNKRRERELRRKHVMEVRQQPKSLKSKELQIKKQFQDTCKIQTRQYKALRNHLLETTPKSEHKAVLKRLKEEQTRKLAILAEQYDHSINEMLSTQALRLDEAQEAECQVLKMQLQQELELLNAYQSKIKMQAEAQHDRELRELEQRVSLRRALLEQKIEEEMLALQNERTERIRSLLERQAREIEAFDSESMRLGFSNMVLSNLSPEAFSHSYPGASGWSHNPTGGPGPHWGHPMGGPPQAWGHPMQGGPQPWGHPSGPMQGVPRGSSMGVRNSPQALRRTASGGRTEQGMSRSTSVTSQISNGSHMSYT

In assay [7] the target is T3, Serine/threonine-protein kinase Chk1 (Homo sapiens, UniProt O14757).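 Also: measured as one member of a kinome-wide kinase profiling panel.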
T3 sequence (O14757 whole entry): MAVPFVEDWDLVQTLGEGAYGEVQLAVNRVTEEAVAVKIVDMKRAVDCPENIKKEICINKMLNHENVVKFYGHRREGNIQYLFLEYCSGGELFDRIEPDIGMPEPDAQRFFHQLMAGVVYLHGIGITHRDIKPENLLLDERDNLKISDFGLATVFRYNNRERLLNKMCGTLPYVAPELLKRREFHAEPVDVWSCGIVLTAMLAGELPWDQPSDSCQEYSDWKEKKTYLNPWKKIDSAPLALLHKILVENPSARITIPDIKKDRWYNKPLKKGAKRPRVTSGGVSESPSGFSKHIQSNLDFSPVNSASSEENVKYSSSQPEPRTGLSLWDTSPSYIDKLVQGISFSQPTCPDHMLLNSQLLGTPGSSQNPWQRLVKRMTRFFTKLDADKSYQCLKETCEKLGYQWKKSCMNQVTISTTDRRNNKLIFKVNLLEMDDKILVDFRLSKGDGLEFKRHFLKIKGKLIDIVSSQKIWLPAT

Assay [8] addresses Fibroblast growth factor receptor 3 (Homo sapiens, UniProt P22607).
The target of assay [9] is Vascular endothelial growth factor receptor 2 (Homo sapiens, UniProt P35968).
Sequence of Vascular endothelial growth factor receptor 2 (P35968 whole entry): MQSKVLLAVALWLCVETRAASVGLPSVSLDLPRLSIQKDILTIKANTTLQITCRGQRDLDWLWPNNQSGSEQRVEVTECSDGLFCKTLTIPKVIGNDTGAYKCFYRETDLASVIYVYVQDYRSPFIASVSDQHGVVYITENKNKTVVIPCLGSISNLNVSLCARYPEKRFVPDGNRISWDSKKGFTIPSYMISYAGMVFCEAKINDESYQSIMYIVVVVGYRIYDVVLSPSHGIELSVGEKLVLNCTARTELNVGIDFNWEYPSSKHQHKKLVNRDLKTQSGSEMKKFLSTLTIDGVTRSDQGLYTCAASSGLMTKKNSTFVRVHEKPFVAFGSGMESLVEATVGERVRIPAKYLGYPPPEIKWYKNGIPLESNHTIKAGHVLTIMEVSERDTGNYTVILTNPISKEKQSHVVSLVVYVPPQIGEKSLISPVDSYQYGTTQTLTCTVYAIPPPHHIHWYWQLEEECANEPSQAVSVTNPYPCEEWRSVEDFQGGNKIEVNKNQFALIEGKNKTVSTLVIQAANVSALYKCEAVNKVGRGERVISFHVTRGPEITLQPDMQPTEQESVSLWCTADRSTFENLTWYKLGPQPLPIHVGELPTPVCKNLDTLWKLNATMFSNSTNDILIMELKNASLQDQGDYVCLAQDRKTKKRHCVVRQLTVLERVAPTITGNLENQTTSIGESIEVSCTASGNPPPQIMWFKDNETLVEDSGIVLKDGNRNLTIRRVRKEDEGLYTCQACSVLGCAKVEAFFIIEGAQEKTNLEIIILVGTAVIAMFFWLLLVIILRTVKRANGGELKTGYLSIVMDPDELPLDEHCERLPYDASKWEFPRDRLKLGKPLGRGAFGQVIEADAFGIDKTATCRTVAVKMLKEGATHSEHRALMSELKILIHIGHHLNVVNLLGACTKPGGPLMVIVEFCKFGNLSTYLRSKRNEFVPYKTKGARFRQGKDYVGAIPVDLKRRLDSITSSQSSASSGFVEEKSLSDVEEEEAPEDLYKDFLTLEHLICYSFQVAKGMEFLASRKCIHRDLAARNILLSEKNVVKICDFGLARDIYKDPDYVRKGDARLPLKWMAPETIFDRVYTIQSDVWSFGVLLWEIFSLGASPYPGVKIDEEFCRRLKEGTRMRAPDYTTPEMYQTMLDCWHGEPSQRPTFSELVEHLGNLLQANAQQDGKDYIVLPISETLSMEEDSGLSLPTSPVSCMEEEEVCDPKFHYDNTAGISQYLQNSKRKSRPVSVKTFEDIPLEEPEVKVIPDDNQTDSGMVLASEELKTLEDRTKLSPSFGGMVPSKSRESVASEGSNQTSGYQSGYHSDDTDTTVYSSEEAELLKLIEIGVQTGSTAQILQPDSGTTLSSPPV
Assay [10] concerns the target Protein kinase C gamma type (Homo sapiens, UniProt P05129).
For assay [11], the target named is Calcium/calmodulin-dependent protein kinase type II subunit alpha (Homo sapiens, UniProt Q9UQM7). Nature of the assay: Navigating the Kinome. Panel member name: CAMK2A.
Sequence of Calcium/calmodulin-dependent protein kinase type II subunit alpha (Q9UQM7 whole entry): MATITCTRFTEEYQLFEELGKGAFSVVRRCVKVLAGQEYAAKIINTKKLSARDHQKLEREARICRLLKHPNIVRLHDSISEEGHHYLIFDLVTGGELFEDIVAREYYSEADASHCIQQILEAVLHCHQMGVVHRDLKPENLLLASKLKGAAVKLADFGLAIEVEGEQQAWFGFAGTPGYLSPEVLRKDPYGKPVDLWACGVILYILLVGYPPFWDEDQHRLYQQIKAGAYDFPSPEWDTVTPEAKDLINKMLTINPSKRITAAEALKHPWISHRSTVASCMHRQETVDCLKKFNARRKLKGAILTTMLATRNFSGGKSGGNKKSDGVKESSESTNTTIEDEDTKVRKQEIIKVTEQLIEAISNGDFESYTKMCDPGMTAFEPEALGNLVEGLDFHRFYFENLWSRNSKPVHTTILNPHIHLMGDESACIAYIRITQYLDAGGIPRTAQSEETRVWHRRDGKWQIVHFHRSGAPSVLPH
Assay [12] deals with Leukocyte tyrosine kinase receptor (Homo sapiens, UniProt P29376). The assay can be described thus: Navigating the Kinome. Panel member name: LTK.

Active and inactive are the calls of the source.

Sequence of ALK tyrosine kinase receptor (Q9UM73 whole entry): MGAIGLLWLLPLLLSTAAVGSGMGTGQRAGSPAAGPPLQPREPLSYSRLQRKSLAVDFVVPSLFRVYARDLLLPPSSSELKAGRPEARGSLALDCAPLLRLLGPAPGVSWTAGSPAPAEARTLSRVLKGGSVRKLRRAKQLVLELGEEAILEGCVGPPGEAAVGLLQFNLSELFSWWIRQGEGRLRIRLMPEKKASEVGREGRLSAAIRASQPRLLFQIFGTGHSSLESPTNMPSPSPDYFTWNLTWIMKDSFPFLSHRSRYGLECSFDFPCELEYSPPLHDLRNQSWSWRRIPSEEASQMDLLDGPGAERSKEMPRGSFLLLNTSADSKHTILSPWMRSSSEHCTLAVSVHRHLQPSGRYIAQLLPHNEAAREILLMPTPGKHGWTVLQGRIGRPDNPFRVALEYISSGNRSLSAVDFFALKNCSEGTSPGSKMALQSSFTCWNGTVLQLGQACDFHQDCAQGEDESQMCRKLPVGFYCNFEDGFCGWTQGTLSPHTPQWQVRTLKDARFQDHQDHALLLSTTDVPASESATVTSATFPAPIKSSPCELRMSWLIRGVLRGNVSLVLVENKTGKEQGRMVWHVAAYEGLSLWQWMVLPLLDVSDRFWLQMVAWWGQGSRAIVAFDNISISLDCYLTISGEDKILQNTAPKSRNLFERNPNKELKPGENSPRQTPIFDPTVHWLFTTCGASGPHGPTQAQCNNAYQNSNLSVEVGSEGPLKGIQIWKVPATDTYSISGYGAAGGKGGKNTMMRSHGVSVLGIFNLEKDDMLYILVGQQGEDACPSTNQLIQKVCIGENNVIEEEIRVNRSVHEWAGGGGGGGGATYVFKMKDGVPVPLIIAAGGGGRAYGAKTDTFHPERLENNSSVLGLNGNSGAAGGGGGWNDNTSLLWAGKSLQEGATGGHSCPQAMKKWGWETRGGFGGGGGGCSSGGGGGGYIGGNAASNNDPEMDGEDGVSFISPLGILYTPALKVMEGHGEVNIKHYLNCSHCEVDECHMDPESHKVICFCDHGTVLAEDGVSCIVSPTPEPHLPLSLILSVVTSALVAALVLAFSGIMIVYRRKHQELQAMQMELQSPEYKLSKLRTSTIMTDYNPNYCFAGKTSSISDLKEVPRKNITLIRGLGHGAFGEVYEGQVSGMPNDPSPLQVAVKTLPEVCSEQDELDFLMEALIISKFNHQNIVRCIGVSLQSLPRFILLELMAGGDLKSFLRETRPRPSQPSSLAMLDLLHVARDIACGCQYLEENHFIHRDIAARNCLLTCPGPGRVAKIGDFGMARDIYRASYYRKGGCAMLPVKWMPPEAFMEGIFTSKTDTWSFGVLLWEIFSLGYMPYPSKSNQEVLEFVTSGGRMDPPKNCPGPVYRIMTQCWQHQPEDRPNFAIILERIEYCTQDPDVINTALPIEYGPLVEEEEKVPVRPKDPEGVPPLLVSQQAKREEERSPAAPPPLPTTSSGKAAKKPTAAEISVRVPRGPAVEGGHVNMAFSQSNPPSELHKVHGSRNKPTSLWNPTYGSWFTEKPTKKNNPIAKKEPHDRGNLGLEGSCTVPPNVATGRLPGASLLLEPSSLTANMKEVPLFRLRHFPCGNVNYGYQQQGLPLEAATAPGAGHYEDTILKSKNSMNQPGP
Sequence of Macrophage colony-stimulating factor 1 receptor (P07333 whole entry): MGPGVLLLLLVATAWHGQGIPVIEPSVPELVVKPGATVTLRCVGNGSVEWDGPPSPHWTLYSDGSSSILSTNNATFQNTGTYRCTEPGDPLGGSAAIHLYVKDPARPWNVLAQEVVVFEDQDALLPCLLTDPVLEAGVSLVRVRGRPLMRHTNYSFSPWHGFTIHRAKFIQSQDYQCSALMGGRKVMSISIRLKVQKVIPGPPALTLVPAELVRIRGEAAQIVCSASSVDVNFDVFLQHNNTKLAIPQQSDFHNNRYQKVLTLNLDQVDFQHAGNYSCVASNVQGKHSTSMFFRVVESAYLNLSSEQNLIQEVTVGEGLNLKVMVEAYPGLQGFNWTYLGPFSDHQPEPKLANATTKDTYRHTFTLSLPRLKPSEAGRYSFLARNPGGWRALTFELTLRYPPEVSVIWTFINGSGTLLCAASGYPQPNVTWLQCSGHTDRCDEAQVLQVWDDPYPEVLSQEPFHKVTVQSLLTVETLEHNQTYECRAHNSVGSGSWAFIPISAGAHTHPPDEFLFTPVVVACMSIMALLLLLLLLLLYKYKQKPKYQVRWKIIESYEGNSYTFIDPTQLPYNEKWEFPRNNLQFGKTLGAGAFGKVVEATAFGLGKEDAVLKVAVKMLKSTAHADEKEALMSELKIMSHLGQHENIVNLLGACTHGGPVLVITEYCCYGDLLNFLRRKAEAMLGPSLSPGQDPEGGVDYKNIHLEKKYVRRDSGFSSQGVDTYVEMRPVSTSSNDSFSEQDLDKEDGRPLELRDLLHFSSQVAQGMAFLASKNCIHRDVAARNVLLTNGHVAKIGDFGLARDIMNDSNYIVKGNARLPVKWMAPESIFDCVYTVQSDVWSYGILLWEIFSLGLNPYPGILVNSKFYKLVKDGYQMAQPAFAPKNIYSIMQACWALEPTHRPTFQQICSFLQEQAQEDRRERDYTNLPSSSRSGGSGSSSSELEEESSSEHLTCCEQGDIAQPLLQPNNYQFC

Consider `NC1CCC(Nc2nccc(-c3c[nH]c4ncccc34)n2)CC1` (configuration not stated), for which the Ki in [1] is > 1.26 µM (inactive); in assay [2] it was 0.1 µM (active); in assay [3], 0.126 µM (active); in [4] it was 0.2 µM (active); in assay [5] it was 0.0501 µM (active); in assay [6], 0.316 µM (active). The Ki in [7] was 2 µM (active); in [8] it was > 2 µM (inactive); at Aurora kinase B, 2 µM (active); in assay [9], > 7.94 µM (inactive); in assay [10], 0.158 µM (active).
In the case of `OCc1cc(-c2ccc3[nH]ncc3c2)on1`, the Ki was 79.4 µM (active) in assay [1]; > 100 µM (inactive) in assay [2]; 31.6 µM (active) in assay [3]; 79.4 µM (active) in [11]; 3.16 µM (active) in assay [4]; 39.8 µM (active) in assay [5]. In addition, the Ki in [6] is 79.4 µM (active); in assay [7], 39.8 µM (active); at Aurora kinase A, 15.8 µM (active); in [12], 20 µM (active); at Focal adhesion kinase 1, 63.1 µM (active); on Aurora kinase B it was 20 µM (active). In assay [9], the Ki is 7.94 µM (active).
`COC(C(=O)N1Cc2[nH]nc(NC(=O)c3ccc(N4CCN(C)CC4)cc3)c2C1)c1ccccc1` (configuration not stated): the Ki in [2] is 0.158 µM (active); in assay [11], > 6.31 µM (inactive); in assay [8], 0.0316 µM (active); in assay [12], 0.0316 µM (active); in [10], > 7.94 µM (inactive).
For the molecule `CC(C)(O)c1cn(-c2ccc3[nH]ncc3c2)nn1`, the Ki was 79.4 µM (active) in assay [1]; 39.8 µM (active) in [2]; 6.31 µM (active) in assay [3]; 63.1 µM (active) in [11]; 12.6 µM (active) in [4]; 50.1 µM (active) in assay [5]. The inhibition constant (Ki) in assay [6] is 79.4 µM (active); in [7] it was 63.1 µM (active); at Aurora kinase A, 25.1 µM (active); in assay [12], 15.8 µM (active); at Focal adhesion kinase 1 it was 50.1 µM (active); on Aurora kinase B, 31.6 µM (active). Also, in assay [9], the Ki is 39.8 µM (active).

Broadly, the Ki is the dissociation constant of the complex between target and ligand, obtained from inhibition or displacement.
